These results are taken from patent US20140093960A1, “CELL DIFFERENTIATION INDUCER AND DIFFERENTIATION INDUCING METHOD” (The University of Tokushima, priority 2011, published 2014).

Holding throughout (assay type): cell-based
The subject of assay [1] is mouse ES cells (AB2-2). Kind of assay: Induction of differentiation of mouse ES cell, change of morphology (Example 7(1)). Particulars: minimum concentration at which the change of the morphology was observed; embryoid bodies from mouse ES cells, 25 to 100 μM, cultured 4 days, hematoxylin staining. The protocol:
The culture medium was added to a petri dish having a diameter of 60 mm. Further, 1 10^6 mouse ES cells (AB2-2) which were obtained from Dr. Alan Bradley in The Wellcome Trust Sanger Institute were added thereto, and incubated under 5% CO2 atmosphere at 37° C. for 1 day. Then, the cells were separated using a glass pipet and added to the same petri dish again, and incubated under 5% CO2 atmosphere at 37° C. for 3 days to form embryoid bodies.
Then, the above cultured cell dispersion (100 μL) was added to 96 well plate which was coated with collagen type 1, and was incubated under 5% CO2 atmosphere at 37° C. overnight. Separately, each examined compound was dissolved in a culture medium which was obtained by removing […] and a leukemia inhibitory factor from an ES culture medium and which was used for inducing a differentiation, and the solutions were added each well so that the final concentrations were 25 to 100 μM. As examined compounds, compounds which were synthesized by similar methods to Examples 1 to 6 in addition to the compounds synthesized in Examples 1 to 6 were used. […] In addition, fetal bovine serum was added at a final concentration of 5% and bFGF: basic fibroblast growth factor was added at a final concentration of 2 ng/mL to each well, and the cells were cultured in an adhesive state under 5% CO2 atmosphere at 37° C. for 4 days.
After the above culture, paraformaldehyde was added to each well at a final concentration of 2% to fix the cells. The cells were stained with hematoxylin, and the change of the morphology thereof was observed using an optical microscope. As control, only dimethylsulfoxide was added at a final concentration of 0.5% without adding the examined compound. […] In addition, the minimum concentrations of each examined compound at which the change of the morphology was observed are summarized in Table 2.

The test system of the next assay is mouse ES cell. Nature of the assay: Gene expression analysis by RT-PCR (Example 7(3)). Particulars: mouse ES cell treated with 80 μM for 5 days. The protocol:
Differentiation of a mouse ES cell was induced similarly to the above (1) except that the cell was treated with 80 μM of the examined compound 4 for 5 days. From the obtained cell, total RNA was extracted using TRIzol reagent. Using the total RNA, cDNA was synthesized by an ordinary method. A polymerase chain reaction was carried out using the synthesized cDNA as a template and each primer of Oct3/4▪Nanog—a marker of an undifferentiated cell, Nestin—a marker of a neural stem cell, Sox9▪Sox10▪Slug—a marker of a neural crest cell, GATA2—a marker of a mesoderm, Sca-1—a marker of a stem cell, and c-kit—a marker of a hematopoietic stem cell for analyzing the expression of each marker. In addition, for comparison, the expression was similarly analyzed with respect to an undifferentiated mouse ES cell and an embryoid body obtained by culturing a mouse ES cell for 3 days.

The test system of assay [2] is mouse ES cells (AB2-2). Kind of assay: Induction of differentiation of mouse ES cell, morphology (Example 10). Particulars: 50 μM, 4 days, hematoxylin staining, optical microscope. The protocol: A culture medium to induce an embryoid bodies used in Example 7 (4 mL) was added to a petri dish having a diameter of 60 mm. Further, 10^6 mouse ES cells (AB2-2) were added thereto, and incubated under 5% CO2 atmosphere at 37° C. for 3 days. The obtained embryoid was added into a […] volume tube. The above petri dish was washed by adding 1 PBS (5 mL), and the PBS was added into the above tube. The half quantity of the obtained cells was transferred to a separate tube, and the tube was stood still at room temperature for 5 minutes. After the supernatant was removed, an NP medium (10.5 mL) used in Example 7 was added. The cells were dispersed well, and the mixture was added to each well of a 96 well plate which was coated with collagen in an amount of 100 μL. The cells were incubated under 5% CO2 atmosphere at 37° C. overnight.
In DMSO, 3,4-dihydroxybenzonitrile (manufactured by Tokyo Chemical Industry Co., Ltd.) was dissolved. The solution was added to each well so that the total amount became 200 μL in a final concentration of 12.5 μM, 25 μM or […]. Further, blood serum and bFGF: basic fibroblast growth factor were added to each well respectively in final concentrations of 5% and 10 ng/mL, and the cells were cultured under 5% CO2 atmosphere at 37° C. for 4 days.
After the cultivation, 100 μL of the culture medium was removed from each well. […]

Assay [3] relates to mouse ES cells (AB2-2). Nature of the assay: Combinational effect with retinoic acid, cell count (Example 9). As to conditions: 4 days; for number of the nervous system cells: average of four experiments. The protocol: The culture medium was added to a petri dish having a diameter of 60 mm. Further, 1 10^6 mouse ES cells (AB2-2) which were obtained from Dr. Alan Bradley in The Wellcome Trust Sanger Institute were added thereto, and incubated under 5% CO2 atmosphere at 37° C. for 1 day. Then, the cells were separated using a glass pipet and added to the same petri dish again, and incubated under 5% CO2 atmosphere at 37° C. for 3 days to form embryoid bodies. […] Then, the above cultured cell dispersion ([…]) was added to 96 well plate which was coated with collagen type I, and was incubated under 5% CO2 atmosphere at 37° C. overnight. On the next day, the examined compound 5 only or with retinoic acid in combination in each final concentration of 10 nM was added thereto, and the cells were incubated in adhesive state under 5% CO2 atmosphere at 37° C. for 4 days. After the incubation, the cells were washed with PBS, and separated using 0.25% Trypsin. The number of the cells was counted. This experiment was carried out four times, and the average of the counted numbers was obtained. […] In the FIG. 7, “RA” represents retinoic acid.

On to `O=C(O)c1csc(-c2cccc(OCc3ccccc3)c2OCc2ccccc2)n1` [examined compound 1, 2-{2,3-Bis(benzyloxy)phenyl}thiazole-4-carboxylic acid], for which the “Minimum effective concentration for morphology change” value in the assay on mouse ES cells (AB2-2) [1] was 50 μ M.

As for `O=C(O)[C@@H]1CSC(c2cccc(OCc3ccccc3)c2OCc2ccccc2)=N1` [examined compound 2, (R)-2-{2,3-Bis(benzyloxy)phenyl}-4,5-dihydrothiazole-4-carboxylic acid], the “Minimum effective concentration for morphology change” value in the assay on mouse ES cells (AB2-2) [1] was 100 μ M.

In the assay on mouse ES cells (AB2-2) [1], “2-(2,3-Dihydroxyphenyl)thiazole-4-carboxylic acid [examined compound 3]” came in with a Minimum inhibitory concentration of 70 μ M 70 μ M. Besides, in the assay on mouse ES cell, the “Slug expression (marker of a neural crest cell)” value is on record as “remarkably expressed”, the “Sox9 expression (marker of a neural crest cell)” value is listed as “expressed” and the “Sox10 expression (marker of a neural crest cell)” value is reported as “expressed”.

In the case of `N#Cc1ccc(O)c(O)c1` [3,4-dihydroxybenzonitrile], the “change of the cells' morphology” value in the assay with mouse ES cells (AB2-2) [2] is given as “nervous system cells which had cell processes all around were observed”.

In the case of `COC(=O)c1cc(O)c(O)c(O)c1` [Example 5, Methyl 3,4,5-trihydroxybenzoate], the “number of the nervous system cells” value in the assay on mouse ES cells (AB2-2) [3] (compound only, final concentration 10 nM) is 1.71±0.51 10^6; in the assay on mouse ES cells (AB2-2) [3] (in combination with retinoic acid, each final concentration 10 nM) it was 3.23±0.42 10^6. Besides, the “increase of the number of nervous system cells with retinoic acid in combination versus compound only” value in the assay with mouse ES cells (AB2-2) [3] (each final concentration 10 nM) is recorded as “about 1.89 times”.
